Values of other authors as cited in patent US20250367363A1, “METHODS OF LOCAL IRRIGATION FOR TREATING INFECTIONS” (Osteal Therapeutics, Inc., priority 2023, published 2025).
Like-named read-outs stand apart in the source and are kept apart here. *1 amine or outer side, *2 acyl side, *3 side chain or, on linkers, in order; H or OH if unused. Where a SMILES comes first, the peptide text is derived from it. Bridges are numbered along the chain shown (N, C = ends). [ ]: non-standard residue; d: D form. The star is where a group is joined. hTyr(3S-OH,4S-OH,3'-OSO3H) = N[C@H](C(=O)O)[C@H](O)[C@@H](O)c1ccc(O)c(OS(=O)(=O)O)c1; pTerphenylCO(4''-OnC5H11) = CCCCCOc1ccc(-c2ccc(-c3ccc(C(=O)*)cc3)cc2)cc1; Orn(4R-OH,5R-OH) = O=C([C@H](C[C@@H](O)[C@@H](O)N[*:3])N[*:1])[*:2]; hTyr(3S-OH,4S-OH) = N[C@H](C(=O)O)[C@H](O)[C@@H](O)c1ccc(O)cc1; Pro(3S-OH,4S-Me) = C[C@H]1CN[C@H](C(=O)O)[C@H]1O; X1 = CCCCCOc1ccc(-c2cc(-c3ccc(C(=O)*)cc3)no2)cc1; Gln(3R-OH) = NC(=O)C[C@@H](O)[C@H](N)C(=O)O; Hyp = O=C(O)[C@@H]1C[C@@H](O)CN1

Key:
[1] = systemic

Row | Compound | Safe Daily Dose ([1]; Table 2 antibiotics) | Safe IV Concentration (Table 2 antibiotics) [mg/mL] | Safe Daily Dose ([1]; Table 3 antifungal agents) [mg] | Safe IV Concentration (Table 3 antifungal agents) [mg/mL]
1 | Gentamicin | 7 mg/kg/day | 0.2 | – | –
2 | CCCCCOc1ccc(-c2cc(-c3ccc(C(=O)N[C@H]4C[C@@H](O)[C@@H](O)NC(=O)[C@@H]5[C@@H](O)[C@@H](C)CN5C(=O)[C@H]([C@H](O)CC(N)=O)NC(=O)[C@H]([C@H](O)[C@@H](O)c5ccc(O)c(OS(=O)(=O)O)c5)NC(=O)[C@@H]5C[C@@H](O)CN5C(=O)[C@H]([C@@H](C)O)NC4=O)cc3)no2)cc1 [Micafungin] (X1-[Orn(4R-OH,5R-OH)]T[Hyp][hTyr(3S-OH,4S-OH,3'-OSO3H)][Gln(3R-OH)][Pro(3S-OH,4S-Me)]; lactam 1-C) | – | – | 150 | 1.5
3 | CN[C@H](CC(C)C)C(=O)N[C@H]1C(=O)N[C@@H](CC(N)=O)C(=O)N[C@H]2C(=O)N[C@H]3C(=O)N[C@H](C(=O)N[C@H](C(=O)O)c4cc(O)cc(O)c4-c4cc3ccc4O)[C@H](O)c3ccc(c(Cl)c3)Oc3cc2cc(c3O[C@@H]2O[C@H](CO)[C@@H](O)[C@H](O)[C@H]2O[C@H]2C[C@](C)(N)[C@H](O)[C@H](C)O2)Oc2ccc(cc2Cl)[C@H]1O [Vancomycin] | 45 to 60 mg/kg/day | 5 | – | –
4 | CC[C@H](C)C[C@H](C)CCCCCCCCC(=O)N[C@H]1C[C@@H](O)[C@@H](NCCN)NC(=O)[C@@H]2[C@@H](O)CCN2C(=O)[C@H]([C@H](O)CCN)NC(=O)[C@H]([C@H](O)[C@@H](O)c2ccc(O)cc2)NC(=O)[C@@H]2C[C@@H](O)CN2C(=O)[C@H]([C@@H](C)O)NC1=O [Caspofungin] | – | – | 70 | 0.5
5 | Cc1nnc(SCC2=C(C(=O)O)N3C(=O)[C@@H](NC(=O)Cn4cnnn4)[C@H]3SC2)s1 [Cefazolin] | 6 g/day | 330 | – | –
6 | O=C(O)c1cn(C2CC2)c2cc(N3CCNCC3)c(F)cc2c1=O [Ciprofloxacin] | 1.2 g/day | 2 | – | –
7 | C[C@@H](c1nc(-c2ccc(C#N)cc2)cs1)[C@](O)(Cn1cncn1)c1cc(F)ccc1F [Isavuconazole] | – | – | 1116 | 1.488
8 | CCCCCOc1ccc(-c2ccc(-c3ccc(C(=O)N[C@H]4C[C@@H](O)[C@@H](O)NC(=O)[C@@H]5[C@@H](O)[C@@H](C)CN5C(=O)[C@H]([C@@H](C)O)NC(=O)[C@H]([C@H](O)[C@@H](O)c5ccc(O)cc5)NC(=O)[C@@H]5C[C@@H](O)CN5C(=O)[C@H]([C@@H](C)O)NC4=O)cc3)cc2)cc1 [Anidulafungin] ({pTerphenylCO(4''-OnC5H11)}-[Orn(4R-OH,5R-OH)]T[Hyp][hTyr(3S-OH,4S-OH)]T[Pro(3S-OH,4S-Me)]; lactam 1-C) | – | – | 200 | 1
9 | CO/N=C(\C(=O)N[C@@H]1C(=O)N2C(C(=O)[O-])=C(C[N+]3(C)CCCC3)CS[C@H]12)c1csc(N)n1 [Cefepime] | 6 g/day | 40 | – | –
10 | C[C@@H]1[C@H](O)[C@@H](C)/C=C/C=C/C=C/C=C/C=C/C=C/C=C/[C@H](O[C@@H]2O[C@H](C)[C@@H](O)[C@H](N)[C@@H]2O)C[C@@H]2O[C@](O)(C[C@@H](O)C[C@@H](O)[C@H](O)CC[C@@H](O)C[C@@H](O)CC(=O)O[C@H]1C)C[C@H](O)[C@H]2C(=O)O [Amphotericin B] | – | – | – | 0.25
11 | CCC[C@@H]1C[C@@H](C(=O)N[C@@H]([C@H]2O[C@H](SC)[C@H](O)[C@@H](O)[C@H]2O)[C@H](C)Cl)N(C)C1 [Clindamycin] | 2.7 g/day | 18 | – | –
